{"source": "patent US10597388B2", "about": "“Pyridazinone herbicides” (FMC CORPORATION, priority 2014, dated 2020)", "experiment_in_all_cases": "Test E greenhouse herbicide test, pre- and postemergence", "format_in_all_cases": "in vivo", "key": {"[1]": {"tested_on": "dayflower (Virginia (VA) dayflower, Commelina virginica)", "procedure,_shortened": "(§1)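 Seedlings reaching 2–18 cm (1- to 4-leaf stage) received foliar treatment, while seeds in silt loam received a soil surface spray; the vehicle in each case was a non-phytotoxic solvent mixture including surfactant. Visual scoring versus controls followed 14–21 d later on a 0–100 scale.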"}, "[2]": {"tested_on": "field bindweed (Convolvulus arvensis)", "procedure,_shortened": "as §1"}, "[3]": {"tested_on": "beggarticks (hairy beggarticks, Bidens pilosa)", "procedure,_shortened": "as §1"}, "[4]": {"tested_on": "crabgrass, large (large crabgrass, Digitaria sanguinalis)", "conditions": "Preemergence", "procedure,_shortened": "as §1"}, "[5]": {"tested_on": "momingglory (Ipomoea coccinea)", "conditions": "Preemergence", "procedure,_shortened": "as §1"}, "corn (Zea mays)": {"tested_on": "corn (Zea mays)", "procedure,_shortened": "as §1"}, "[6]": {"tested_on": "goosegrass (Eleusine indica)", "conditions": "Preemergence", "procedure,_shortened": "as §1"}, "[7]": {"tested_on": "wild poinsettia (Euphorbia heterophylla)", "conditions": "Postemergence", "procedure,_shortened": "as §1"}, "[8]": {"tested_on": "panicum, fall (fall panicum, Panicum dichotomiflorum)", "procedure,_shortened": "as §1"}, "[9]": {"tested_on": "barnyardgrass (Echinochloa crus-galli)", "procedure,_shortened": "as §1"}, "[10]": {"tested_on": "Italian ryegrass (Lolium multiflorum)", "procedure,_shortened": "as §1"}, "[11]": {"tested_on": "nightshade (eastern black nightshade, Solanum ptycanthum)", "conditions": "Preemergence", "procedure,_shortened": "as §1"}, "[12]": {"tested_on": "surinam grass (Brachiaria decumbens)", "conditions": "Preemergence", "procedure,_shortened": "as §1"}, "[13]": {"conditions": "62 g ai/ha, Postemergence, scale 0 to 100 (0 no effect, 100 complete control)"}, "[14]": {"conditions": "62 g ai/ha, Preemergence, scale 0 to 100 (0 no effect, 100 complete control)"}, "[15]": {"conditions": "125 g ai/ha, Postemergence, scale 0 to 100 (0 no effect, 100 complete control)"}, "[16]": {"conditions": "250 g ai/ha, Postemergence, scale 0 to 100 (0 no effect, 100 complete control)"}, "[17]": {"conditions": "Postemergence, 31 g ai/ha, visual, scale 0 no effect to 100 complete control"}, "[18]": {"conditions": "Preemergence, 31 g ai/ha, scale 0 to 100, 0 no effect, 100 complete control"}, "[19]": {"conditions": "Preemergence, 125 g ai/ha, visual, scale 0 no effect to 100 complete control"}, "[20]": {"conditions": "Preemergence, 250 g ai/ha, visual, scale 0 no effect to 100 complete control"}, "[21]": {"conditions": "62 g ai/ha, scale 0 to 100 (0 no effect, 100 complete control)"}, "[22]": {"conditions": "125 g ai/ha, visual, scale 0 no effect to 100 complete control"}, "[23]": {"conditions": "250 g ai/ha, visual, scale 0 no effect to 100 complete control"}, "[24]": {"conditions": "125 g ai/ha, scale 0 to 100 (0 no effect, 100 complete control)"}, "[25]": {"conditions": "31 g ai/ha, scale 0 to 100, 0 no effect, 100 complete control"}, "[26]": {"conditions": "125 g ai/ha, Preemergence, scale 0 to 100 (0 no effect, 100 complete control)"}}}
{"smiles": "CC(=O)Oc1c(C)nn(C)c(=O)c1-c1c(C)sc2ccc(C)cc12", "note": "[Compound 25]", "values": [{"measurement": "Plant response rating, Dayflower, VA", "setting": "[1]; [13]", "value": 40}, {"measurement": "Plant response rating, Dayflower, VA", "setting": "[1]; [14]", "value": 5}, {"measurement": "Plant response rating, Dayflower, VA", "setting": "[1]; [15]", "value": 50}, {"measurement": "Plant response rating, Dayflower, VA", "setting": "[1]; [16]", "value": 65}, {"measurement": "Plant response rating, Dayflower, VA", "setting": "[1]; [17]", "value": 10}, {"measurement": "Plant response rating, Dayflower, VA", "setting": "[1]; [18]", "value": 0}, {"measurement": "Plant response rating, Dayflower, VA", "setting": "[1]; [19]", "value": 15}, {"measurement": "Plant response rating, Dayflower, VA", "setting": "[1]; [20]", "value": 30}, {"measurement": "Plant response rating, Field Bindweed", "setting": "[2]; [13]", "value": 95}, {"measurement": "Plant response rating, Field Bindweed", "setting": "[2]; [14]", "value": 98}, {"measurement": "Plant response rating, Field Bindweed", "setting": "[2]; [15]", "value": 95}, {"measurement": "Plant response rating, Field Bindweed", "setting": "[2]; [16]", "value": 90}, {"measurement": "Plant response rating, Field Bindweed", "setting": "[2]; [17]", "value": 90}, {"measurement": "Plant response rating, Field Bindweed", "setting": "[2]; [18]", "value": 80}, {"measurement": "Plant response rating, Field Bindweed", "setting": "[2]; [19]", "value": 60}, {"measurement": "Plant response rating, Field Bindweed", "setting": "[2]; [20]", "value": 98}, {"measurement": "Plant response rating, Beggarticks", "setting": "[3]; [13]", "value": 100}, {"measurement": "Plant response rating, Beggarticks", "setting": "[3]; [14]", "value": 100}, {"measurement": "Plant response rating, Beggarticks", "setting": "[3]; [15]", "value": 100}, {"measurement": "Plant response rating, Beggarticks", "setting": "[3]; [16]", "value": 100}, {"measurement": "Plant response rating, Beggarticks", "setting": "[3]; [17]", "value": 100}, {"measurement": "Plant response rating, Beggarticks", "setting": "[3]; [18]", "value": 100}, {"measurement": "Plant response rating, Beggarticks", "setting": "[3]; [19]", "value": 100}, {"measurement": "Plant response rating, Beggarticks", "setting": "[3]; [20]", "value": 100}, {"measurement": "Plant response rating, Crabgrass, Large", "setting": "[4]; [21]", "value": 15}, {"measurement": "Plant response rating, Crabgrass, Large", "setting": "[4]; [22]", "value": 80}, {"measurement": "Plant response rating, Crabgrass, Large", "setting": "[4]; [23]", "value": 85}, {"measurement": "Plant response rating, Morningglory", "setting": "[5]; [21]", "value": 70}, {"measurement": "Plant response rating, Morningglory", "setting": "[5]; [24]", "value": 95}, {"measurement": "Plant response rating, Morningglory", "setting": "[5]; [25]", "value": 65}, {"measurement": "Plant response rating, Morningglory", "setting": "[5]; [23]", "value": 100}, {"measurement": "Plant response rating, Corn", "setting": "corn (Zea mays); [13]", "value": 20}, {"measurement": "Plant response rating, Corn", "setting": "corn (Zea mays); [14]", "value": 0}, {"measurement": "Plant response rating, Corn", "setting": "corn (Zea mays); [15]", "value": 20}, {"measurement": "Plant response rating, Corn", "setting": "corn (Zea mays); [16]", "value": 15}, {"measurement": "Plant response rating, Corn", "setting": "corn (Zea mays); [17]", "value": 10}, {"measurement": "Plant response rating, Corn", "setting": "corn (Zea mays); [18]", "value": 0}, {"measurement": "Plant response rating, Corn", "setting": "corn (Zea mays); [19]", "value": 0}, {"measurement": "Plant response rating, Corn", "setting": "corn (Zea mays); [20]", "value": 0}, {"measurement": "Plant response rating, Goosegrass", "setting": "[6]; [21]", "value": 65}, {"measurement": "Plant response rating, Goosegrass", "setting": "[6]; [25]", "value": 20}, {"measurement": "Plant response rating, Goosegrass", "setting": "[6]; [22]", "value": 80}, {"measurement": "Plant response rating, Goosegrass", "setting": "[6]; [23]", "value": 90}, {"measurement": "Plant response rating, Poinsettia, Wild", "setting": "[7]; [21]", "value": 30}, {"measurement": "Plant response rating, Poinsettia, Wild", "setting": "[7]; [24]", "value": 35}, {"measurement": "Plant response rating, Poinsettia, Wild", "setting": "[7]; 250 g ai/ha, scale 0 to 100 (0 no effect, 100 complete control)", "value": 60}, {"measurement": "Plant response rating, Poinsettia, Wild", "setting": "[7]; 31 g ai/ha, visual, scale 0 no effect to 100 complete control", "value": 35}, {"measurement": "Plant response rating, Panicum, Fall", "setting": "[8]; [13]", "value": 50}, {"measurement": "Plant response rating, Panicum, Fall", "setting": "[8]; [14]", "value": 100}, {"measurement": "Plant response rating, Panicum, Fall", "setting": "[8]; [15]", "value": 80}, {"measurement": "Plant response rating, Panicum, Fall", "setting": "[8]; [26]", "value": 100}, {"measurement": "Plant response rating, Panicum, Fall", "setting": "[8]; [16]", "value": 90}, {"measurement": "Plant response rating, Panicum, Fall", "setting": "[8]; [17]", "value": 50}, {"measurement": "Plant response rating, Panicum, Fall", "setting": "[8]; [18]", "value": 95}, {"measurement": "Plant response rating, Panicum, Fall", "setting": "[8]; [20]", "value": 100}, {"measurement": "Plant response rating, Barnyardgrass", "setting": "[9]; [13]", "value": 50}, {"measurement": "Plant response rating, Barnyardgrass", "setting": "[9]; [14]", "value": 60}, {"measurement": "Plant response rating, Barnyardgrass", "setting": "[9]; [15]", "value": 50}, {"measurement": "Plant response rating, Barnyardgrass", "setting": "[9]; [16]", "value": 50}, {"measurement": "Plant response rating, Barnyardgrass", "setting": "[9]; [17]", "value": 40}, {"measurement": "Plant response rating, Barnyardgrass", "setting": "[9]; [18]", "value": 20}, {"measurement": "Plant response rating, Barnyardgrass", "setting": "[9]; [19]", "value": 60}, {"measurement": "Plant response rating, Barnyardgrass", "setting": "[9]; [20]", "value": 90}, {"measurement": "Plant response rating, Ryegrass, Italian", "setting": "[10]; [13]", "value": 80}, {"measurement": "Plant response rating, Ryegrass, Italian", "setting": "[10]; [14]", "value": 95}, {"measurement": "Plant response rating, Ryegrass, Italian", "setting": "[10]; [15]", "value": 85}, {"measurement": "Plant response rating, Ryegrass, Italian", "setting": "[10]; [26]", "value": 98}, {"measurement": "Plant response rating, Ryegrass, Italian", "setting": "[10]; [16]", "value": 90}, {"measurement": "Plant response rating, Ryegrass, Italian", "setting": "[10]; [17]", "value": 75}, {"measurement": "Plant response rating, Ryegrass, Italian", "setting": "[10]; [18]", "value": 95}, {"measurement": "Plant response rating, Ryegrass, Italian", "setting": "[10]; [20]", "value": 100}, {"measurement": "Plant response rating, Nightshade", "setting": "[11]; [21]", "value": 80}, {"measurement": "Plant response rating, Nightshade", "setting": "[11]; [24]", "value": 95}, {"measurement": "Plant response rating, Nightshade", "setting": "[11]; [25]", "value": 90}, {"measurement": "Plant response rating, Nightshade", "setting": "[11]; [23]", "value": 98}, {"measurement": "Plant response rating, Surinam Grass", "setting": "[12]; [21]", "value": 80}, {"measurement": "Plant response rating, Surinam Grass", "setting": "[12]; [24]", "value": 90}, {"measurement": "Plant response rating, Surinam Grass", "setting": "[12]; [25]", "value": 65}, {"measurement": "Plant response rating, Surinam Grass", "setting": "[12]; [23]", "value": 95}]}
